Test results published in patent US8143408B2, “N-(8-heteroaryltetrahydronaphtalene-2yl) or N-(5-heteroarylchromane-3-yl) carboxamide derivatives for the treatment of pain” (AstraZeneca AB, priority 2007, dated 2012).

Target: T1, Nav1.7 voltage-gated sodium channel (Homo sapiens, UniProt Q15858)
T1 construct: Gene(s) encoding the full-length protein of the voltage-gated sodium channel of interest are cloned and expressed; expressed in transfected cells
Assay: Whole-cell voltage clamp electrophysiology assay
Format: cell-based
Settings: cells stably expressing the voltage-gated sodium channel of interest
Summary of the method: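 Cells expressing full-length channel, exposed to drug by integrated pipetting on automated patch-clamp platforms or by microperfusion in conventional whole-cell patch clamp. Channels activated by a voltage protocol depolarising from a defined holding potential; buffers per platform manufacturer.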

T1 sequence (Q15858 whole entry): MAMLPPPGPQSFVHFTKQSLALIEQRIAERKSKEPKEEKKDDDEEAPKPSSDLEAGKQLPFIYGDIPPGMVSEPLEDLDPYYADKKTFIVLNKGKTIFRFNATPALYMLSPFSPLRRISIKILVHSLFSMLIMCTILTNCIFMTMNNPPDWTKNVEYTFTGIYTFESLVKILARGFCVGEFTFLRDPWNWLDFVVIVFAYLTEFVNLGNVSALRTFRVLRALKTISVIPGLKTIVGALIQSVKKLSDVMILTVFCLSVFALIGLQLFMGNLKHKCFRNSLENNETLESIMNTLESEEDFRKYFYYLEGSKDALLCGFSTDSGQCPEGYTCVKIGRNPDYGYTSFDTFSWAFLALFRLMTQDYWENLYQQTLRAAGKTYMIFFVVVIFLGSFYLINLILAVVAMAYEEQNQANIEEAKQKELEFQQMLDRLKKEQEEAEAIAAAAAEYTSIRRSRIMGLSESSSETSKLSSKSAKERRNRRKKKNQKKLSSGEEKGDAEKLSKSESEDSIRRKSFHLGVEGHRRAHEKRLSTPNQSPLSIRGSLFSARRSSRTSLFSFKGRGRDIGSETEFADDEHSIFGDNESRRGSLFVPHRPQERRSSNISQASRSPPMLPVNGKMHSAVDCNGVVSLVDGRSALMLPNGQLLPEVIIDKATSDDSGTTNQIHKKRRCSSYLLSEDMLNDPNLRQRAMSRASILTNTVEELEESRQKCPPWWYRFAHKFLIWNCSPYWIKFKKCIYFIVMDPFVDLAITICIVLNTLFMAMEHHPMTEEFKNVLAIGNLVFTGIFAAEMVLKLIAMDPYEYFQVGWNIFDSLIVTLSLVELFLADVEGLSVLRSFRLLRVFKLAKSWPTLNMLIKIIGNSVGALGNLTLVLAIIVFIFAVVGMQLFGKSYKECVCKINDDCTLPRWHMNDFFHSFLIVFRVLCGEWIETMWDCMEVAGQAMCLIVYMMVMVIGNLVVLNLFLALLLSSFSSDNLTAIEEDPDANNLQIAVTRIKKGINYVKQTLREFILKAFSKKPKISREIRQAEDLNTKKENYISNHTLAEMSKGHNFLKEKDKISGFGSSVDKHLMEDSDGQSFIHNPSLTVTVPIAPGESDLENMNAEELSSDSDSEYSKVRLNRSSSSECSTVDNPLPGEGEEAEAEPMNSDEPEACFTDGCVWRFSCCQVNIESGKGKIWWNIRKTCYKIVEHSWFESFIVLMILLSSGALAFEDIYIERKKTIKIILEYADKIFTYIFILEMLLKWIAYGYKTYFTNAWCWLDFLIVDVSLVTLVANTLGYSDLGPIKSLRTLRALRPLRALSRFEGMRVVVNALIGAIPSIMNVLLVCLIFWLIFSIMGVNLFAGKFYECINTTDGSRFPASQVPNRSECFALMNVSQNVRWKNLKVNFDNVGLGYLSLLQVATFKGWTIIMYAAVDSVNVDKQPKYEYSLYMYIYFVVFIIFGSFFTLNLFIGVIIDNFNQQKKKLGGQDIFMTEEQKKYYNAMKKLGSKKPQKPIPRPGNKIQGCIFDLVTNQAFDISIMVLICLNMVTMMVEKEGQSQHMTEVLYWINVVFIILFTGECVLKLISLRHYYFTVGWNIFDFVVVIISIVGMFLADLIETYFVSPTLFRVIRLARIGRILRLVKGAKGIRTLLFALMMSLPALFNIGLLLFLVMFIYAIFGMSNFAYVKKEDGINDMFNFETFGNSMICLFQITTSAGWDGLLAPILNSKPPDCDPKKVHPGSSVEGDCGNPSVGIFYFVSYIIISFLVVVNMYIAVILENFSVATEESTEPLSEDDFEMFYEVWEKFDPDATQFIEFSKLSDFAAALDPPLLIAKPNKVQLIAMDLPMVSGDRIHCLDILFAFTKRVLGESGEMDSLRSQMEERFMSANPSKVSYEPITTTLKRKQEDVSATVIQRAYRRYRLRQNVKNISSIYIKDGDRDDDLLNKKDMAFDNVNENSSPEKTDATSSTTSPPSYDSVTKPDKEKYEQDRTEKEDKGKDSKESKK

Row | IC50 | Structure (SMILES)
1 | 0.2 µM | Cc1ncc(-c2cccc3c2C[C@H](NC(=O)c2ccc(COCC(F)(F)F)nc2)CO3)cn1 [Example 203, N-[(3S)-5-(2-methylpyrimidin-5-yl)-3,4-dihydro-2H-chromen-3-yl]-6-[(2,2,2-trifluoroethoxy)methyl]nicotinamide]
2 | 7.94 µM | COc1ncc(-c2cccc3c2C[C@H](NC(=O)c2ccc(OC4CCOCC4)nc2)CO3)cc1C(=O)N(C)C [Example 204, 2-methoxy-N,N-dimethyl-5-[(3S)-3-({[6-(tetrahydro-2H-pyran-4-yloxy)pyridin-3-yl]carbonyl}amino)-3,4-dihydro-2H-chromen-5-yl]nicotinamide]
3 | 1.26 µM | CNC(=O)c1cc(-c2cccc3c2C[C@H](NC(=O)c2ccc(OC(C)C)nc2)CO3)cnc1OC [Example 205, 5-[(3S)-3-{[(6-isopropoxypyridin-3-yl)carbonyl]amino}-3,4-dihydro-2H-chromen-5-yl]-2-methoxy-N-methylnicotinamide]
4 | 3.16 µM | CNC(=O)c1cc(-c2cccc3c2C[C@H](NC(=O)c2ccc(OC4CCOCC4)nc2)CO3)cnc1OC [Example 206, 2-methoxy-N-methyl-5-[(3S)-3-({[6-(tetrahydro-2H-pyran-4-yloxy)pyridin-3-yl]carbonyl}amino)-3,4-dihydro-2H-chromen-5-yl]nicotinamide]
5 | 3.98 µM | COc1ncc(-c2cccc3c2C[C@H](NC(=O)c2ccc(OC(C)C)nc2)CO3)cc1C(=O)N(C)C [Example 207, 5-[(3S)-3-{[(6-isopropoxypyridin-3-yl)carbonyl]amino}-3,4-dihydro-2H-chromen-5-yl]-2-methoxy-N,N-dimethylnicotinamide]
6 | 1.58 µM | COc1ncc(-c2cccc3c2C[C@H](NC(=O)c2ccc(OCC(F)(F)F)nc2)CO3)cc1C(=O)N(C)C [Example 208, 2-methoxy-N,N-dimethyl-5-[(3S)-3-({[6-(2,2,2-trifluoroethoxy)pyridin-3-yl]carbonyl}amino)-3,4-dihydro-2H-chromen-5-yl]nicotinamide]
7 | 7.94 µM | CN(C)C(=O)c1ncc(-c2cccc3c2C[C@H](NC(=O)c2ccc(OCCOCC(F)(F)F)nc2)CO3)cn1 [Example 209, N,N-dimethyl-5-{(3S)-3-[({6-[2-(2,2,2-trifluoroethoxy)ethoxy]pyridin-3-yl}carbonyl)amino]-3,4-dihydro-2H-chromen-5-yl}pyrimidine-2-carboxamide]
8 | 0.1 µM | O=C(N[C@@H]1COc2cccc(-c3ccc(CO)nc3)c2C1)c1ccc(OCCOCC(F)(F)F)nc1 [Example 210, N-{(3S)-5-[6-(hydroxymethyl)pyridin-3-yl]-3,4-dihydro-2H-chromen-3-yl}-6-[2-(2,2,2-trifluoroethoxy)ethoxy]nicotinamide]
9 | 0.2 µM | O=C(N[C@@H]1COc2cccc(-c3ccc(CO)nc3)c2C1)c1ccc(OCCCF)nc1 [Example 211, 6-(3-fluoropropoxy)-N-{(3S)-5-[6-(hydroxymethyl)pyridin-3-yl]-3,4-dihydro-2H-chromen-3-yl}nicotinamide]
10 | 0.1 µM | O=C(N[C@@H]1COc2cccc(-c3ccc(CO)nc3)c2C1)c1ccc(OCC(F)(F)F)nc1 [Example 212, N-{(3S)-5-[6-(hydroxymethyl)pyridin-3-yl]-3,4-dihydro-2H-chromen-3-yl}-6-(2,2,2-trifluoroethoxy)nicotinamide]
11 | 0.316 µM | O=C(N[C@@H]1COc2cccc(-c3cnc(CO)cn3)c2C1)c1ccc(OCCOCC(F)(F)F)nc1 [Example 213, N-{(3S)-5-[5-(hydroxymethyl)pyrazin-2-yl]-3,4-dihydro-2H-chromen-3-yl}-6-[2-(2,2,2-trifluoroethoxy)ethoxy]nicotinamide]
